In article PMC2737062 (Bioorganic & medicinal chemistry, 2009):
“Also recorded” adds a separate entry of the source. Structures can show the parent of a compound that is named as a salt. Where two headings read alike, the source gives them in different places. Values belong to the compound of their own block, whether it stands above or below them.

Columns and labels:
[1] = target: T1, soybean lipoxygenase-1 (sLO-1) (Glycine max, UniProt P08170); assay: IC50 assay of sLO-1 with PS, OS and OA inhibitors, LA as substrate; format: biochemical
T1 sequence (P08170 1-839): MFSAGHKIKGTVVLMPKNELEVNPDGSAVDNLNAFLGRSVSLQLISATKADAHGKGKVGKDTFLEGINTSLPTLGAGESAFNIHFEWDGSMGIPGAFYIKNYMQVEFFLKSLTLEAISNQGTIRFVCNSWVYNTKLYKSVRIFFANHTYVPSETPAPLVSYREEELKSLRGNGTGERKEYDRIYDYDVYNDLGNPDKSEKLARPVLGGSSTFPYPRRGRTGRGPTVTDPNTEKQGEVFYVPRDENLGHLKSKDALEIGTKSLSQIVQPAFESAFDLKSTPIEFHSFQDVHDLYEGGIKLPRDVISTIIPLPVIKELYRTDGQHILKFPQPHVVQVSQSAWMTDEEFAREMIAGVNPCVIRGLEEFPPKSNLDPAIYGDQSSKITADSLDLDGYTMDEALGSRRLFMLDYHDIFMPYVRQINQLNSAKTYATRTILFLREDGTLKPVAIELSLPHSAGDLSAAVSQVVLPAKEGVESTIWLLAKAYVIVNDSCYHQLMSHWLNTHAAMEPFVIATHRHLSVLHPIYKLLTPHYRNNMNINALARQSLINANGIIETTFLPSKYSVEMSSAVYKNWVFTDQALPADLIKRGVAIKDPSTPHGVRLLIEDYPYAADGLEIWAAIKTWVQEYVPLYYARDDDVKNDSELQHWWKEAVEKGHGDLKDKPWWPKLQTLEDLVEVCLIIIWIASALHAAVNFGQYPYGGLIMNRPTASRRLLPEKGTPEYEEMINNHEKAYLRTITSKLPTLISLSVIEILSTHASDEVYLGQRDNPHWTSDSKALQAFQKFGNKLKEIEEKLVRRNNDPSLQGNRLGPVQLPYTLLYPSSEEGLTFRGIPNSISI

[2] = target: T1, soybean lipoxygenase-1 (sLO-1); format: biochemical; conditions: for effect of LO product on the AA:LA ratio: up to 5 μM product
[3] = target: T1, soybean lipoxygenase-1 (sLO-1); format: biochemical; conditions: for effect of inhibitor on the (kcat/KM)^ALA/(kcat/KM)^LA ratio: inhibitor in excess of its IC50 value; for effect of LO product on the endogenous substrate mixture ratio ALA:LA: up to 5 μM product addition
[4] = system: 15-hLO-1 (human reticulocyte 15-lipoxygenase); conditions: cited from earlier work

Compound: CC/C=C\C[C@H](O)/C=C/C=C\CCCCCCCC(=O)O [13-HOTrE]
- effect of LO product on the AA:LA ratio [2]: no observable effect
- effect of LO product on the endogenous substrate mixture ratio ALA:LA [3]: no effect

Compound: CC/C=C\C/C=C\C/C=C\CCCCCCCC(=O)O [ALA, α-linolenic acid]
- (kcat/KM)^ALA/(kcat/KM)^LA ratio (substrate specificity, no effector) ([3]; ALA:LA 1:1, 1 μM total substrate, 100 mM Borate pH 9.2, 22 °C): 0.75 ± 0.5

Compound: CCCCC/C=C\C[C@H](O)/C=C/C=C\C/C=C\CCCC(=O)O [12-HETE, 12-(S)-hydroxyeicosatetraenoic acid]
- (kcat/KM)^AA/(kcat/KM)^LA ratio ([2]; addition of 12-HETE (5 μM), control 1.8 ± 0.2): 2.4 ± 0.2
- maximum (kcat/KM)^AA/(kcat/KM)^LA ratio at saturating conditions ([2]; calculated from saturation curve fit): 5.1 ± 0.3
- binding affinity to sLO-1 weaker than to 15-hLO-1 ([2]; ratio of half saturation points, sLO-1 vs 15-hLO-1): ~30 fold
- effect on sLO-1 catalysis ([2]; saturating amounts at the allosteric site, both AA and LA as substrate): inhibit sLO-1
- effect of LO product on the endogenous substrate mixture ratio ALA:LA [3]: no effect
- (kcat/KM)^AA/(kcat/KM)^LA ratio of 15-hLO-1 ([4]; with 12-HETE, increase from 1.8): 2.7

Further lines, with some results ahead:

- IC50 [1]: 1 ± 0.1 µM
- AC50 [2]: 1.5 ± 0.3 µM
Compound: CCCCCCCC/C=C\CCCCCCCCOS(=O)(=O)O [OS, oleyl sulfate]
- effect of inhibitor on the (kcat/KM)^ALA/(kcat/KM)^LA ratio [3]: none of the inhibitors, OS, OA, or PS, affected

- (kcat/KM)^AA/(kcat/KM)^LA ratio (substrate specificity, no effector) ([2]; AA:LA 1:1, 1 μM total substrate, 100 mM Borate pH 9.2, 22 °C): 1.8 ± 0.2
Compound: CCCCC/C=C\C/C=C\C/C=C\C/C=C\CCCC(=O)O [AA, arachidonic acid]

- IC50 [1]: 11 ± 3 µM
- effect of inhibitor on the AA:LA substrate ratio ([2]; competitive inhibitor, at IC50 and 5-fold IC50): no effect
Compound: CCCCCCCC/C=C\CCCCCCCC(=O)O [OA, oleic acid]
- effect of inhibitor on the (kcat/KM)^ALA/(kcat/KM)^LA ratio [3]: none of the inhibitors, OS, OA, or PS, affected

- effect of LO product on the endogenous substrate mixture ratio ALA:LA [3]: no effect
Compound: CCCCC[C@H](O)/C=C/C=C\CCCCCCCC(=O)O [13-HODE, 13-(S)-hydroxyoctadecadienoic acid]
- effect of LO product on the AA:LA ratio [2]: no observable effect; also recorded: did not display any observable effect
- (kcat/KM)^AA/(kcat/KM)^LA ratio of 15-hLO-1 ([4]; 5 μM 13-HODE, increase from 1.4): 2.9
